Source: patent US20260130933A1, “PHARMACEUTICAL COMPOSITION FOR PREVENTION OR TREATMENT OF NEPHROPATHY AND/OR DIABETES MELLITUS, COMPRISING ENAVOGLIFLOZIN” (DAEWOONG PHARMACEUTICAL CO., LTD., priority 2022, published 2026)

Assay: Example 3: phase 3 trial, enavogliflozin 0.3 mg vs dapagliflozin 10 mg once a day for 24 weeks added to metformin and gemigliptin in patients with type 2 diabetes (same endpoints, rescue drug)
Format: in vivo, human
Conditions: week 24
Protocol: 1) when Metformin (≥1,000 mg/Day) was Administered at a Constant Dose for at Least 8 Weeks Prior to Pre-Visit (Pre-Screening) • Metformin (≥1,000 mg/day) and gemigliptin (50 mg/day) were co-administered during the 8-week stabilization period. […] 4) when Metformin (≥1,000 mg/Day) and Gemigliptin (50 mg/Day) were Co-Administered at Constant Doses for at Least 8 Weeks Prior to Pre-Visit (Prescreening) • Without a separate stabilization period, Pre-visit (pre-screening) was Visit 1 (screening).
Subjects who met the inclusion/exclusion criteria continued to receive metformin and gemigliptin while receiving a placebo of the clinical trial drug in a single-blind (subject-blinded) state for a 2-week run-in period.
Here, the randomized subjects were stratified according to the administration therapy (co-administration with two or less agents (one or two agents) or three or more agents) of a conventional hypoglycemic agent (before washout of another hypoglycemic agent) within 24 weeks prior to obtaining written informed consent and by an HbA1c value (<8% or ≥8%) at Visit 1 (screening) measured in the central laboratory.
The randomized subjects were administered two tablets of the clinical trial drug corresponding to each administration group once a day, and then visited the institution at weeks 6, 12, 18, and 24 during the 24-week administration period to conduct efficacy and safety assessments. In addition, during the clinical trial period, they were instructed to exercise regularly and control their diet without changing their daily life patterns.
• 1) Change in HbA1c at week 24 after administration of clinical trial drug compared to Visit 2 (randomization)
• 1) Change in HbA1c at each time point of weeks 6, 12, and 18 after administration of clinical trial drug compared to Visit 2 (randomization) • 2) Change in FPG at each time point of weeks 6, 12, 18, and 24 after administration of clinical trial drug compared to Visit 2 (randomization) • 3) Proportion of subjects achieving HbA1c<7% at each time point of weeks 6, 12, 18, and 24 after administration of clinical trial drug • 4) Proportion of subjects achieving HbA1c<6.5% at each time point of weeks 6, 12, 18, and 24 after administration of clinical trial drug • 5) Proportion of subjects achieving therapeutic response (HbA1c change (HbA1c at Visit 2—HbA1c at each evaluation time point)>0.5% or HbA1c<7% at each evaluation time point compared to Visit 2 (randomization)) at each time point of weeks 6, 12, 18, and 24 after administration of clinical trial drug • 6) Proportion of subjects achieving therapeutic response (HbA1c change (HbA1c at Visit 2—HbA1c at each evaluation time point)>0.7% or HbA1c<7% at each evaluation time point compared to Visit 2 (randomization)) at each time point of weeks 6, 12, 18, and 24 after administration of clinical trial drug • 7) Proportion of subjects achieving therapeutic response (HbA1c change (HbA1c at Visit 2—HbA1c at each evaluation time point)>1% or HbA1c<7% at each evaluation time point compared to Visit 2 (randomization)) at each time point of weeks 6, 12, 18, and 24 after administration of clinical trial drug

[1] = modified per-protocol set 2, enavogliflozin 0.3 mg, dapagliflozin 10 mg
[2] = per-protocol set, enavogliflozin 0.3 mg vs dapagliflozin 10 mg
[3] = per-protocol set, enavogliflozin 0.3 mg, dapagliflozin 10 mg

Compound: OC[C@H]1O[C@@H](c2cc(Cc3ccc(C4CC4)cc3)c(Cl)c3c2CCO3)[C@H](O)[C@@H](O)[C@@H]1O [Enavogliflozin, (2S,3R,4R,5S,6R)-2-(7-chloro-6 (4-cyclopropylbenzyl)-2,3-dihydrobenzofuran-4-yl)-6-(hydroxymethyl)tetrahydro-2H-pyran-3,4,5-triol]
- Change from baseline in diastolic blood pressure, Median (modified per-protocol set 2): −3.00 mmHg
- Diastolic blood pressure, Mean (modified per-protocol set 2): 73.40 mmHg
- Diastolic blood pressure, Median (modified per-protocol set 2): 73.50 mmHg
- Change from baseline in systolic blood pressure, ANCOVA LS mean difference (modified per-protocol set 2, enavogliflozin 0.3 mg vs dapagliflozin 10 mg): −0.22 mmHg
- Change from baseline in systolic blood pressure, ANCOVA LS mean [1]: −4.49 mmHg
- Change from baseline in systolic blood pressure, Mean [1]: −5.20 mmHg
- Change from baseline in systolic blood pressure, Median [1]: −5.00 mmHg
- Systolic blood pressure, Mean [1]: 122.29 mmHg
- Systolic blood pressure, Median [1]: 121.00 mmHg
- Adiponectin, Mean (per-protocol set): 7.62 µg/mL
- Adiponectin, Median (per-protocol set): 6.49 µg/mL
- Change from baseline in HOMA-IR, ANCOVA LS mean (per-protocol set): −1.09
- Change from baseline in HOMA-IR, LS mean difference (enavogliflozin − dapagliflozin) (per-protocol set): −0.16
- Change from baseline in HOMA-IR, Mean (per-protocol set): −1.07
- Change from baseline in HOMA-IR, Median (per-protocol set): −0.80
- Change from baseline in HOMA-β, ANCOVA LS mean (per-protocol set): 1.09
- Change from baseline in HOMA-β, LS mean difference (enavogliflozin − dapagliflozin) (per-protocol set): −4.69
- Change from baseline in HOMA-β, Mean (per-protocol set): 2.57
- Change from baseline in HOMA-β, Median (per-protocol set): 5.70
- Change from baseline in UACR, ANCOVA LS mean (per-protocol set): -15.34 g/kg
- Change from baseline in UACR, LS mean difference (enavogliflozin − dapagliflozin) (per-protocol set): 0.79 g/kg
- Change from baseline in UACR, Mean (per-protocol set): -19.52 g/kg
- Change from baseline in UACR, Median (per-protocol set): -1.55 g/kg
- Change from baseline in UGCR, ANCOVA LS mean (per-protocol set): 60.22 mg/mg
- Change from baseline in UGCR, LS mean difference (enavogliflozin − dapagliflozin) (per-protocol set): 16.71 mg/mg
- Change from baseline in UGCR, Mean (per-protocol set): 59.39 mg/mg
- Change from baseline in UGCR, Median (per-protocol set): 55.98 mg/mg
- Change from baseline in adiponectin, ANCOVA LS mean (per-protocol set): 1.42 µg/mL
- Change from baseline in adiponectin, LS mean difference (enavogliflozin − dapagliflozin) (per-protocol set): 0.49 µg/mL
- Change from baseline in adiponectin, Mean (per-protocol set): 1.39 µg/mL
- Change from baseline in adiponectin, Median (per-protocol set): 1.11 µg/mL
- Change from baseline in leptin, ANCOVA LS mean (per-protocol set): -1.46 ng/mL
- Change from baseline in leptin, LS mean difference (enavogliflozin − dapagliflozin) (per-protocol set): -0.89 ng/mL
- Change from baseline in leptin, Mean (per-protocol set): -1.52 ng/mL
- Change from baseline in leptin, Median (per-protocol set): -0.91 ng/mL
- HOMA-IR (insulin resistance), Mean (per-protocol set): 1.84
- HOMA-IR (insulin resistance), Median (per-protocol set): 1.56
- HOMA-β (beta-cell function), Mean (per-protocol set): 45.48
- HOMA-β (beta-cell function), Median (per-protocol set): 41.40
- Leptin, Mean (per-protocol set): 8.95 ng/mL
- Leptin, Median (per-protocol set): 6.03 ng/mL
- UACR, Mean (per-protocol set): 27.90 g/kg
- UACR, Median (per-protocol set): 11.10 g/kg
- UGCR, Mean (per-protocol set): 60.12 mg/mg
- UGCR, Median (per-protocol set): 57.96 mg/mg
- Achieving HbA1c target of <6.5%, odds ratio (logistic regression model) [2]: 1.27
- Achieving HbA1c target of <7%, odds ratio (logistic regression model) [2]: 1.17
- Change from baseline in FPG, ANCOVA LS mean difference [2]: -3.49 mg/dL
- Change from baseline in body weight, ANCOVA LS mean difference [2]: -0.15 kg
- Change from baseline in fasting C-peptide, ANCOVA LS mean difference [2]: -0.01 ng/mL
- Therapeutic glycemic response 1, odds ratio (logistic regression model) [2]: 1.15
- Therapeutic glycemic response 2, odds ratio (logistic regression model) [2]: 0.98
- Therapeutic glycemic response 3, odds ratio (logistic regression model) [2]: 1.22
- Body weight, Mean [3]: 66.19 kg
- Change from baseline in FPG, ANCOVA LS mean [3]: -27.21 mg/dL
- Change from baseline in FPG, Mean [3]: -26.31 mg/dL
- Change from baseline in FPG, Median [3]: -20.00 mg/dL
- Change from baseline in body weight, ANCOVA LS mean [3]: -3.15 kg
- Change from baseline in body weight, Mean [3]: -3.09 kg
- Change from baseline in body weight, Median [3]: -3.00 kg
- Change from baseline in fasting C-peptide, ANCOVA LS mean [3]: -0.09 ng/mL
- Change from baseline in fasting C-peptide, Mean [3]: -0.09 ng/mL
- Change from baseline in fasting C-peptide, Median [3]: -0.07 ng/mL
- FPG, Mean [3]: 113.03 mg/dL
- FPG, Median [3]: 110.00 mg/dL
- Fasting C-peptide, Mean [3]: 0.64 ng/mL
- Fasting C-peptide, Median [3]: 0.63 ng/mL
- Subjects achieving HbA1c target of <6.5%, (%) [3]: 21.01%
- Subjects achieving HbA1c target of <7%, % [3]: 66.39%
- body weight, Median [3]: 65.10 kg
- Subjects achieving therapeutic glycemic response 1, % (per-protocol set, response 1 = HbA1c change >0.5% or HbA1c <7%, enavogliflozin 0.3 mg, dapagliflozin 10 mg): 86.55%
- Subjects achieving therapeutic glycemic response 2, % (per-protocol set, response 2 = HbA1c change >0.7% or HbA1c <7%, enavogliflozin 0.3 mg, dapagliflozin 10 mg): 81.51%
- Subjects achieving therapeutic glycemic response 3, % (per-protocol set, response 3 = HbA1c change >1% or HbA1c <7%, enavogliflozin 0.3 mg, dapagliflozin 10 mg): 78.15%
